Values belong to the molecule of their own block, whether it stands above or below them.
Key:
[1] = test system: mechanical hyperalgesia in rats with diabetes induced by streptozotocin; test: Mechanical hyperalgesia in rats with diabetes induced by streptozotocin; type: in vivo, rat; conditions: male CD rats, streptozotocin 80 mg/kg i.p. diabetic neuropathy, dose 10^-5 mol/kg, vehicle 112 ± 4.0, normal animals 240±8.7 g
Experimental: The pain threshold of normal animals of equal weight/age=155±2.1 g 2. Mechanical Hyperalgesia in Rats with Diabetes Induced by Streptozotocin
Male CD rats weighing 240-300 g on arrival were used.
Diabetic syndrome was induced by a single intraperitoneal (i.p.) injection of 80 mg/kg of streptozotocin dissolved in sterile physiological solution [Courteix C, Eschalier A, Lavarenne J. Streptozotocin-induced diabetic rats: behavioural evidence for a model of chronic pain. Pain, 1993; 53: 81-88; Bannon A W, Decker M W, Kim Dj, Campbell J E, Arneric S P. ABT-594, a novel cholinergic channel modulator, is efficacious in nerve ligation and diabetic neuropathy models of neuropathic pain. Brain Res. 1998; 801: 158-63].
After at least three weeks following the injection of streptozotocin, rats were selected having a level of glycaemia ≧300 mg/dl and having a response threshold to a mechanical nociceptive stimulus ≦120 g. The glycaemia levels were measured by means of a reflectometer using reactive strips impregnated with glucose oxidase. The pain threshold was measured using an analgesiometer. By applying a gradual increase in pressure on the dorsal zone of the rat's left hind foot, the instrument makes it possible to record the nocifensive response, expressed in grams, corresponding to the moment when the animal retracts its foot.
At 2 h following the treatment, the pain threshold measured in control animals was compared with that measured in animals treated with the product under examination (dose 10^−5 mol/kg).
The control animals were treated with the same vehicle (water) used for administering the products under examination.

[2] = test system: mechanical hyperalgesia induced by CFA in the rat; test: Mechanical hyperalgesia induced by CFA in the rat; type: in vivo; conditions: male CD rats, dose 10^-5 mol/kg, test 23 hours after injection of CFA, vehicle 121 ± 4.1, normal animals 155±2.1 g
Excerpt: 1. Mechanical Hyperalgesia Induced by CFA in the Rat
Male CD rats weighing 150-200 g on arrival were used. Using an analgesiometer, rats were selected having a response threshold to a mechanical nociceptive stimulus of from 150 to 180 g. By applying a gradual increase in pressure on the dorsal zone of the rat's left hind foot, the instrument makes it possible to record the nocifensive response, expressed in grams, corresponding to the moment when the animal retracts its foot [Randall L O and Semite J J. A method for the measurement of analgesic activity on inflamed tissue. Arch. Int. Pharmacodyn. Ther. 1957; 111: 409-419].
Hyperalgesia was induced by unilateral injection of 150 μl of Complete Freund's Adjuvant (CFA) in the plantar surface of the animal's left hind foot [Andrew D, Greenspan J D. Mechanical and heat sensitization of cutaneous nociceptors after peripheral inflammation in the rat. J Neurophysiol 1999; 82(5): 2649-2656; Hargreaves K, Dubner R, Brown R, Flores C, Joris J. A new and sensitive method for measuring thermal nociception in cutaneous hyperalgesia. Pain 1988; 32: 77-88].
The compounds under examination were tested (dose 10^−5 mol/kg) by carrying out the test 23 hours after injection of CFA.
At 1 h following the treatment, the pain threshold measured in control animals was compared with that measured in animals treated with the product under examination. The control animals were treated with the same vehicle (water) used for administering the products under examination.

SMILES: CC(C)n1nc(C(=O)NCC2CCN(CCc3ccc(N)cc3)CC2)c2ccccc21.Cl.Cl [AF3R294, N((1-(2-(4-aminophenyl)ethyl)-4-piperidinyl)methyl)-1-(1-methylethyl)-1H-indazole-3-carboxamide dihydrochloride]
Pain threshold (g) 2 h after treatment [1]: 198 ± 18.6 g
Pain threshold (g) 1 h after treatment [2]: 194 ± 22.4 g

SMILES: Cc1ccc2c(c1)c(C(=O)NCC1CCN(CCc3ccc(O)cc3)CC1)nn2C(C)C.Cl [AF3R296, N((1-(2-(4-hydroxyphenyl)ethyl)-4-piperidinyl)methyl)-5-methyl-1-(1-methylethyl)-1H-indazole-3-carboxamide hydrochloride]
Pain threshold (g) 2 h after treatment [1]: 154 ± 8.7 g
Pain threshold (g) 1 h after treatment [2]: 151 ± 10.7 g

SMILES: Cl.O=C(NCC1CCN(CCc2ccc([N+](=O)[O-])cc2)CC1)c1n[nH]c2ccccc12 [AF3R298, N((1-(2-(4-nitrophenyl)ethyl)-4-piperidinyl)methyl)-1H-indazole-3-carboxamide hydrochloride]
Pain threshold (g) 2 h after treatment [1]: 170 ± 10.2 g
Pain threshold (g) 1 h after treatment [2]: 174 ± 9.8 g

SMILES: Cl.Cl.Nc1ccc(CCN2CCC(CNC(=O)c3n[nH]c4ccccc34)CC2)cc1 [AF3R302, N((1-(2-(4-aminophenyl)ethyl)-4-piperidinyl)methyl)-1H-indazole-3-carboxamide dihydrochloride]
Pain threshold (g) 2 h after treatment [1]: 164 ± 10.2 g
Pain threshold (g) 1 h after treatment [2]: 160 ± 10.2 g

SMILES: CC(C)n1nc(C(=O)NCC2CCN(CCc3ccc([N+](=O)[O-])cc3)CC2)c2ccccc21.O=C(O)C(=O)O [AF3R306, N((1-(2-(4-nitrophenyl)ethyl)-4-piperidinyl)methyl)-1-(1-methylethyl)-1H-indazole-3-carboxamide oxalate]
Pain threshold (g) 2 h after treatment [1]: 184 ± 13.8 g
Pain threshold (g) 1 h after treatment [2]: 186 ± 11.0 g

melting point: 137 to 139 °C (dec.)
SMILES: COc1ccc(CCN2CCC(C(=O)Nc3nn(C)c4ccccc34)CC2)cc1.Cl [AF3R328, N-(1-methyl-1H-indazol-3-yl)-1-(2-(4-methoxyphenyl)ethyl)piperidine-4-carboxamide hydrochloride]
Pain threshold (g) 2 h after treatment [1]: 158 ± 6.2 g
Pain threshold (g) 1 h after treatment [2]: 150 ± 8.7 g

SMILES: Cl.Cn1nc(NC(=O)C2CCN(CCc3ccc(O)cc3)CC2)c2ccccc21 [AF3R330]
Pain threshold (g) 2 h after treatment [1]: 171 ± 9.6 g
Pain threshold (g) 1 h after treatment [2]: 161 ± 10.5 g

melting point: 235 to 237 °C
SMILES: Cl.Cn1nc(NC(=O)C2CCN(CCc3ccccc3)CC2)c2ccccc21 [AF3R334, N-(1-methyl-1H-indazol-3-yl)-1-(2-phenylethyl)piperidine-4-carboxamide hydrochloride]
Pain threshold (g) 2 h after treatment [1]: 184 ± 10.5 g
Pain threshold (g) 1 h after treatment [2]: 170 ± 11.0 g

— patent US8415476B2, “Indazole having analgesic activity” (Aziende Chimiche Riunite Angelini Francesco A.C.R.A.F. …, priority 2003, dated 2013)
